Consider four compounds from ChEMBL document CHEMBL5376003, “Structure-Activity Relationship of FL118 Platform Position 7 Versus Position 9-Derived Compounds and Their Mechanism of Action and Antitumor Activity” (J Med Chem, 2023).

The test system of test [1] is PDX27454. The test can be described thus: Antitumor activity against human PDX27454 cells xenografted in SCID mouse model assessed as reduction in tumor volume at 2 mg/kg,po administrated once per week for 3 weeks. It is filed as functional, organism-based. (In general: In xenograft studies the graft and the host belong to different species.)
Test [2] concerns PDX27454. The test can be described thus: Antitumor activity against human PDX27454 cells xenografted in SCID mouse model assessed as reduction in tumor volume at 8 mg/kg,po administrated once per week for 3 weeks. It is filed as functional, organism-based.
Test [3] has as its target T1, DNA topoisomerase 1 (Homo sapiens) (UniProt P11387).
T1 sequence (whole entry): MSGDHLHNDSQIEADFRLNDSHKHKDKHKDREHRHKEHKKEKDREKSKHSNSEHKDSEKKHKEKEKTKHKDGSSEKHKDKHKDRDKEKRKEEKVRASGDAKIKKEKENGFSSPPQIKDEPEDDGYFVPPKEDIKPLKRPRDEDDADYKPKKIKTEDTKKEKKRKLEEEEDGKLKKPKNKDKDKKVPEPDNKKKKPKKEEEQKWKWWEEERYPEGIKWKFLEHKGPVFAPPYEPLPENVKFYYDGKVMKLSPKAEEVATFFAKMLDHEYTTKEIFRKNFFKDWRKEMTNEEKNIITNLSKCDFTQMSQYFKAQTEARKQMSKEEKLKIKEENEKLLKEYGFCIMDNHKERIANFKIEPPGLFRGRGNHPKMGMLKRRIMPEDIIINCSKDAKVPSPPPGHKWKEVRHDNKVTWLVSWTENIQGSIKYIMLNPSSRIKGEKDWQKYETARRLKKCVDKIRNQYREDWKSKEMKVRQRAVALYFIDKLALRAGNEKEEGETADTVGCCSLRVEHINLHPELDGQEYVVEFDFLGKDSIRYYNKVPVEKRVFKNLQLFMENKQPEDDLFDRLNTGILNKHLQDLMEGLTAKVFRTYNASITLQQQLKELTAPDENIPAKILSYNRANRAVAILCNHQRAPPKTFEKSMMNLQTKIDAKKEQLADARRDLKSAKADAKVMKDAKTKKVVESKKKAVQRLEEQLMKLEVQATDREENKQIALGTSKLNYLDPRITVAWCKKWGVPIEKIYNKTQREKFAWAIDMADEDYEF
The test can be described thus: Inhibition of topoisomerase 1 (unknown origin) assessed as relaxation of supercoiled plasmid pBR322 DNA at 25 to 100 uM incubated for 30 mins by ethidium bromide staining based agarose gel electrophoresis. To be noted: dose 25-100 µM.

For test [4], the system named is HCT-116. Description: Induction of apoptosis in human HCT-116 cells assessed as downregulation of MCL-1 protein expression incubated for 48 hrs by Western blotting analysis. In kind it is functional, cell-based. On the technique in general: In western blotting, separated proteins are transferred to a membrane and probed.
Test [5] has as its system HCT-116. Description: Induction of apoptosis in human HCT-116 cells assessed as upregulation of DDX5 mRNA expression at 50 nM incubated for 24 hrs by RNA analysis. It is filed as functional, cell-based.
Test [6] concerns HCT-116. Description: Induction of apoptosis in human HCT-116 cells assessed as modulation of TOP2A mRNA expression at 10 to 500 nM incubated for 6 to 48 hrs by RNA analysis. It is filed as functional, cell-based. To be noted: dose 10-500 nM, time 6-48 hrs.
Test [7] relates to HCT-116. The test can be described thus: Induction of apoptosis in human HCT-116 cells assessed as modulation of DDX6 mRNA expression at 10 to 500 nM incubated for 6 to 48 hrs by RNA analysis. To be noted: dose 10-500 nM, time 6-48 hrs. In kind it is functional, cell-based.
Test [8] deals with HCT-116. Description: Induction of apoptosis in human HCT-116 cells assessed as modulation of DDX21 mRNA expression at 10 to 500 nM incubated for 6 to 48 hrs by RNA analysis. To be noted: dose 10-500 nM, time 6-48 hrs. In kind it is functional, cell-based.
The test system of test [9] is HCT-116. Description: Induction of apoptosis in human HCT-116 cells assessed as modulation of DDX47 mRNA expression at 10 to 500 nM incubated for 6 to 48 hrs by RNA analysis. In kind it is functional, cell-based. As to conditions: dose 10-500 nM, time 6-48 hrs.
Test [10] deals with HCT-116. Description: Induction of apoptosis in human HCT-116 cells assessed as modulation of DDX49 mRNA expression at 10 to 500 nM incubated for 6 to 48 hrs by RNA analysis. In kind it is functional, cell-based. To be noted: dose 10-500 nM, time 6-48 hrs.
Test [11] concerns HCT-116. The test can be described thus: Induction of apoptosis in human HCT-116 cells assessed as upregulation of Bax mRNA expression at 10 to 500 nM incubated for 6 to 48 hrs by RNA analysis. As to conditions: dose 10-500 nM, time 6-48 hrs. It is filed as functional, cell-based.
Test [12] relates to HCT-116. Description: Induction of apoptosis in human HCT-116 cells assessed as downregulation of GTF2H1 mRNA expression at 10 to 500 nM incubated for 6 to 48 hrs by RNA analysis. It is filed as functional, cell-based. To be noted: dose 10-500 nM, time 6-48 hrs.
Test [13] relates to HCT-116. The test can be described thus: Induction of apoptosis in human HCT-116 cells assessed as upregulation of ADCY6 mRNA expression at 10 to 500 nM incubated for 6 to 48 hrs by RNA analysis. In kind it is functional, cell-based. To be noted: dose 10-500 nM, time 6-48 hrs.
The subject of test [14] is HCT-116. The test can be described thus: Activation of innate immune response in human HCT-116 cells assessed as upregulation of IL-1A gene expression at 10 to 500 nM incubated for 6 to 48 hrs by RNA analysis. In kind it is functional, cell-based. As to conditions: dose 10-500 nM, time 6-48 hrs.
Test [15] has as its system HCT-116. The test can be described thus: Activation of innate immune response in human HCT-116 cells assessed as upregulation of IRF3 gene expression at 10 to 500 nM incubated for 6 to 48 hrs by RNA analysis. In kind it is functional, cell-based. To be noted: dose 10-500 nM, time 6-48 hrs.
Test [16] deals with HCT-116. Description: Activation of innate immune response in human HCT-116 cells assessed as upregulation of IRF5 gene expression at 10 to 500 nM incubated for 6 to 48 hrs by RNA analysis. As to conditions: dose 10-500 nM, time 6-48 hrs. In kind it is functional, cell-based.
Test [17] concerns HCT-116. Description: Induction of apoptosis in human HCT-116 cells assessed as downregulation of NUP210 gene expression at 10 to 500 nM incubated for 6 to 48 hrs by RNA analysis. It is filed as functional, cell-based. To be noted: dose 10-500 nM, time 6-48 hrs.
The subject of test [18] is HCT-116. Description: Induction of apoptosis in human HCT-116 cells assessed as downregulation of NUP98 gene expression at 10 to 500 nM incubated for 6 to 48 hrs by RNA analysis. To be noted: dose 10-500 nM, time 6-48 hrs. It is filed as functional, cell-based.
Test [19] concerns HCT-116. The test can be described thus: Induction of apoptosis in human HCT-116 cells assessed as downregulation of TPI1 gene expression at 10 to 500 nM incubated for 6 to 48 hrs by RNA analysis. In kind it is functional, cell-based. As to conditions: dose 10-500 nM, time 6-48 hrs.
In test [20] the test system is HCT-116. The test can be described thus: Induction of apoptosis in human HCT-116 cells assessed as downregulation of TPR gene expression at 10 to 500 nM incubated for 6 to 48 hrs by RNA analysis. In kind it is functional, cell-based. To be noted: dose 10-500 nM, time 6-48 hrs.
Test [21] has as its system HCT-116. The test can be described thus: Induction of apoptosis in human HCT-116 cells assessed as downregulation of DCTPP1 gene expression at 10 to 500 nM incubated for 6 to 48 hrs by RNA analysis. It is filed as functional, cell-based. To be noted: dose 10-500 nM, time 6-48 hrs.
In test [22] the test system is HCT-116. The test can be described thus: Induction of apoptosis in human HCT-116 cells assessed as downregulation of PUDP gene expression at 10 to 500 nM incubated for 6 to 48 hrs by RNA analysis. As to conditions: dose 10-500 nM, time 6-48 hrs. In kind it is functional, cell-based.
Test [23] deals with HCT-116. Description: Induction of apoptosis in human HCT-116 cells assessed as downregulation of TXNRD1 gene expression at 10 to 500 nM incubated for 6 to 48 hrs by RNA analysis. In kind it is functional, cell-based. To be noted: dose 10-500 nM, time 6-48 hrs.
The subject of test [24] is HCT-116. Description: Induction of apoptosis in human HCT-116 cells assessed as downregulation of UMPS gene expression at 10 to 500 nM incubated for 6 to 48 hrs by RNA analysis. As to conditions: dose 10-500 nM, time 6-48 hrs. In kind it is functional, cell-based.
For test [25], the system named is HCT-116. Description: Induction of apoptosis in human HCT-116 cells assessed as downregulation of LIPE gene expression at 10 to 500 nM incubated for 6 to 48 hrs by RNA analysis. In kind it is functional, cell-based. To be noted: dose 10-500 nM, time 6-48 hrs.

SMILES strings stand for the structures. Active and inactive are the calls of the source. No cut-off for these calls is given here.

Consider `CC[C@@]1(O)C(=O)OCc2c1cc1n(c2=O)Cc2c-1nc1cc3c(cc1c2-c1ccc(OC)cc1)OCO3`, for which the outcome in the test on PDX27454 [1], in the test on PDX27454 [2], in the test on HCT-116 [4], in the test on HCT-116 [6], in the test on HCT-116 [7] and in the test with HCT-116 [8] was Active. Moreover, the result with HCT-116 [9], with HCT-116 [10], in the test with HCT-116 [11], in the test on HCT-116 [12], in the test with HCT-116 [13] and with HCT-116 [14] was Active. Also, the outcome with HCT-116 [15], with HCT-116 [16], in the test on HCT-116 [17], in the test on HCT-116 [18], in the test on HCT-116 [19] and in the test with HCT-116 [20] was Active. Moreover, the outcome in the test on HCT-116 [21], with HCT-116 [22], with HCT-116 [23], with HCT-116 [24] and in the test on HCT-116 [25] was Active. Moreover, the “Topoisomerase 1 inhibition” value in test [3] was “Active”. Besides, the result in the test with HCT-116 [5] was inactive.

Take `CC[C@@]1(O)C(=O)OCc2c1cc1n(c2=O)Cc2cc3cc4c(cc3nc2-1)OCO4`: in the test on HCT-116 [5], the result was inactive. Moreover, the outcome with HCT-116 [6], in the test on HCT-116 [7], with HCT-116 [8], in the test on HCT-116 [9], in the test with HCT-116 [10] and with HCT-116 [11] was Active. Besides, the outcome with HCT-116 [12], in the test on HCT-116 [13], with HCT-116 [14], in the test with HCT-116 [15], in the test on HCT-116 [16] and with HCT-116 [17] was Active. The outcome with HCT-116 [18], with HCT-116 [19], in the test with HCT-116 [20], with HCT-116 [21], in the test with HCT-116 [22] and with HCT-116 [23] was Active. Also, the result in the test with HCT-116 [24] and with HCT-116 [25] was Active.

On to `CC[C@@]1(O)C(=O)OCc2c1cc1n(c2=O)Cc2c-1nc1cc3c(cc1c2-c1cc(OC)cc(OC)c1)OCO3`, for which the result in the test on PDX27454 [1], in the test on PDX27454 [2], in the test on HCT-116 [4], in the test on HCT-116 [6], in the test on HCT-116 [7] and with HCT-116 [8] was Active. Besides, the result with HCT-116 [10], in the test with HCT-116 [11], with HCT-116 [12], in the test on HCT-116 [15], in the test with HCT-116 [16] and with HCT-116 [17] was Active. For the same compound, the outcome in the test on HCT-116 [18], with HCT-116 [19], in the test on HCT-116 [20], in the test on HCT-116 [21], in the test on HCT-116 [22] and in the test on HCT-116 [23] was Active. Further, the outcome in the test on HCT-116 [24] and in the test on HCT-116 [25] was Active. The “Topoisomerase 1 inhibition” value in test [3] is “Active”. Also, the result in the test on HCT-116 [5] was inactive.

Consider `CCc1ccc(-c2c3c(nc4cc5c(cc24)OCO5)-c2cc4c(c(=O)n2C3)COC(=O)[C@]4(O)CC)cc1`, for which the result in the test with PDX27454 [1], with PDX27454 [2], with HCT-116 [4], in the test with HCT-116 [6], with HCT-116 [7] and in the test with HCT-116 [8] was Active. Also, the outcome in the test on HCT-116 [9], in the test on HCT-116 [10], in the test on HCT-116 [11], with HCT-116 [12], with HCT-116 [13] and in the test with HCT-116 [14] was Active. In addition, the outcome in the test with HCT-116 [15], with HCT-116 [16], with HCT-116 [17], with HCT-116 [18], in the test with HCT-116 [19] and with HCT-116 [20] was Active. Also, the outcome with HCT-116 [21], in the test on HCT-116 [22], in the test on HCT-116 [23], in the test with HCT-116 [24] and with HCT-116 [25] was Active. Further, the “Topoisomerase 1 inhibition” value in [3] was “Active”. For the same compound, the outcome in the test on HCT-116 [5] was inactive.
